According to PubChem BioAssay AID1963440 (Molecular Pharmacology Branch, DTP, NCI, 2024):

Tested on: NCI-H1417 complex spheroids, growth % test/control
Assay: Anticancer human tumor NCI-H1417 cell line growth inhibition [Asc];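 also: spheroids exposed to compounds for 7 days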;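 as to viability, T/C: 100% = DMSO vehicle control wells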
Conditions: for IC50: curve of first compound; for viability, T/C: stronger effect = lower value
Summary of the method: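 Complex solid-tumor spheroids incorporating human endothelial and mesenchymal stem cells received single agents or combinations over half-log dilution ranges anchored to clinical Cmax.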

[1] = second compound 0.01 µM, first compound 0.00316 µM
[2] = second compound 0.01 µM, first compound 0.01 µM
[3] = second compound 0.01 µM, first compound 0.0316 µM
[4] = second compound 0.01 µM, first compound 0.1 µM
[5] = second compound 0.01 µM, first compound 0.316 µM
[6] = second compound 0.01 µM, first compound 1 µM
[7] = second compound 0.0316 µM, first compound 0.00316 µM
[8] = second compound 0.0316 µM, first compound 0.01 µM
[9] = second compound 0.0316 µM, first compound 0.0316 µM
[10] = second compound 0.0316 µM, first compound 0.1 µM
[11] = second compound 0.0316 µM, first compound 0.316 µM
[12] = second compound 0.0316 µM, first compound 1 µM
[13] = second compound 0.1 µM, first compound 0.00316 µM
[14] = second compound 0.1 µM, first compound 0.01 µM
[15] = second compound 0.1 µM, first compound 0.0316 µM
[16] = second compound 0.1 µM, first compound 0.1 µM
[17] = second compound 0.1 µM, first compound 0.316 µM
[18] = second compound 0.1 µM, first compound 1 µM
[19] = second compound 0.316 µM, first compound 0.00316 µM
[20] = second compound 0.316 µM, first compound 0.01 µM
[21] = second compound 0.316 µM, first compound 0.0316 µM
[22] = second compound 0.316 µM, first compound 0.1 µM
[23] = second compound 0.316 µM, first compound 0.316 µM
[24] = second compound 0.316 µM, first compound 1 µM
[25] = second compound 1 µM, first compound 0.00316 µM
[26] = second compound 1 µM, first compound 0.01 µM
[27] = second compound 1 µM, first compound 0.0316 µM
[28] = second compound 1 µM, first compound 0.1 µM
[29] = second compound 1 µM, first compound 0.316 µM
[30] = second compound 1 µM, first compound 1 µM

Compound	IC50 (second compound 0.01 µM) [µM]	IC50 (second compound 0.0316 µM) [µM]	IC50 (second compound 0.1 µM) [µM]	IC50 (second compound 0.316 µM) [µM]	IC50 (second compound 1 µM) [µM]	viability, T/C [1] [%]	viability, T/C [2] [%]	viability, T/C [3] [%]	viability, T/C [4] [%]	viability, T/C [5] [%]	viability, T/C [6] [%]	viability, T/C [7] [%]	viability, T/C [9] [%]	viability, T/C [10] [%]	viability, T/C [15] [%]	viability, T/C [16] [%]	viability, T/C [21] [%]	viability, T/C [22] [%]	viability, T/C [27] [%]	viability, T/C [28] [%]	also measured
CCN1CCN(Cc2ccc(Nc3ncc(F)c(-c4cc(F)c5nc(C)n(C(C)C)c5c4)n3)nc2)CC1 + CNC(C)C(=O)NC1CN(S(=O)(=O)c2cccc(S(=O)(=O)N3CCC4CCC(C(=O)NC(c5ccccc5)c5ccccc5)N4C(=O)C(NC(=O)C(C)NC)C3)c2)CCC2CCC(C(=O)NC(c3ccccc3)c3ccccc3)N2C1=O	> 1	> 1	> 1	> 1	> 1	100	108	106	99.7	96.5	111	102	104	105	99.2	97.8	90.6	99.9	101	110	viability, T/C [8]: 103%; viability, T/C [11]: 97.4%; viability, T/C [12]: 103%; viability, T/C [13]: 93.2%; viability, T/C [14]: 101%; viability, T/C [17]: 103%; viability, T/C [18]: 109%; viability, T/C [19]: 99.3%; viability, T/C [20]: 105%; viability, T/C [23]: 95.2%; viability, T/C [24]: 97.7%; viability, T/C [25]: 105%; viability, T/C [26]: 109%; viability, T/C [29]: 90%; viability, T/C [30]: 93.7%
Cn1ncnc1[C@H]1c2n[nH]c(=O)c3cc(F)cc(c23)N[C@@H]1c1ccc(F)cc1 + CNC(C)C(=O)NC1CN(S(=O)(=O)c2cccc(S(=O)(=O)N3CCC4CCC(C(=O)NC(c5ccccc5)c5ccccc5)N4C(=O)C(NC(=O)C(C)NC)C3)c2)CCC2CCC(C(=O)NC(c3ccccc3)c3ccccc3)N2C1=O	> 0.1	> 0.1	> 0.1	> 0.1	> 0.1	96.8	81.1	69.4	85.3			94	69	80.2	66.9	74	64.3	70.1	80	84.4	viability, T/C (second compound 0.01 µM, first compound 0.000316 µM): 110%; viability, T/C (second compound 0.01 µM, first compound 0.001 µM): 115%; viability, T/C (second compound 0.0316 µM, first compound 0.000316 µM): 104%; viability, T/C (second compound 0.0316 µM, first compound 0.001 µM): 98.8%; viability, T/C [8]: 87.4%; viability, T/C (second compound 0.1 µM, first compound 0.000316 µM): 95.8%; viability, T/C (second compound 0.1 µM, first compound 0.001 µM): 93%; viability, T/C [13]: 90.9%; viability, T/C [14]: 78.3%; viability, T/C (second compound 0.316 µM, first compound 0.000316 µM): 99.6%; viability, T/C (second compound 0.316 µM, first compound 0.001 µM): 110%; viability, T/C [19]: 102%; viability, T/C [20]: 78.5%; viability, T/C (second compound 1 µM, first compound 0.000316 µM): 98%; viability, T/C (second compound 1 µM, first compound 0.001 µM): 112%; viability, T/C [25]: 95.4%; viability, T/C [26]: 81.3%
O=C(c1cc(Cc2n[nH]c(=O)c3ccccc23)ccc1F)N1CCN(C(=O)C2CC2)CC1 + CNC(C)C(=O)NC1CN(S(=O)(=O)c2cccc(S(=O)(=O)N3CCC4CCC(C(=O)NC(c5ccccc5)c5ccccc5)N4C(=O)C(NC(=O)C(C)NC)C3)c2)CCC2CCC(C(=O)NC(c3ccccc3)c3ccccc3)N2C1=O	5.78	6.33	4.79	5.52	5.39			101	101	94.7	83.6		102	87.8	90.3	93.5	99.9	92.3	97.7	90	viability, T/C (second compound 0.01 µM, first compound 3.16 µM): 65.6%; viability, T/C (second compound 0.01 µM, first compound 10 µM): 36.1%; viability, T/C [11]: 88.5%; viability, T/C [12]: 100%; viability, T/C (second compound 0.0316 µM, first compound 3.16 µM): 71.5%; viability, T/C (second compound 0.0316 µM, first compound 10 µM): 35.8%; viability, T/C [17]: 81.8%; viability, T/C [18]: 90%; viability, T/C (second compound 0.1 µM, first compound 3.16 µM): 60.7%; viability, T/C (second compound 0.1 µM, first compound 10 µM): 30.9%; viability, T/C [23]: 96.7%; viability, T/C [24]: 85.6%; viability, T/C (second compound 0.316 µM, first compound 3.16 µM): 68.8%; viability, T/C (second compound 0.316 µM, first compound 10 µM): 30%; viability, T/C [29]: 91.2%; viability, T/C [30]: 95%; viability, T/C (second compound 1 µM, first compound 3.16 µM): 65.5%; viability, T/C (second compound 1 µM, first compound 10 µM): 32%
O=C(c1ccc(F)c(F)c1Nc1ccc(I)cc1F)N1CC(O)([C@@H]2CCCCN2)C1 + CNC(C)C(=O)NC1CN(S(=O)(=O)c2cccc(S(=O)(=O)N3CCC4CCC(C(=O)NC(c5ccccc5)c5ccccc5)N4C(=O)C(NC(=O)C(C)NC)C3)c2)CCC2CCC(C(=O)NC(c3ccccc3)c3ccccc3)N2C1=O	> 1	> 1	> 1	> 1	> 1	107	102	95	103	99.5	85.3	107	92.7	102	95.3	98.4	110	90.9	82.8	95.8	viability, T/C [8]: 96.6%; viability, T/C [11]: 96.7%; viability, T/C [12]: 103%; viability, T/C [13]: 101%; viability, T/C [14]: 90.8%; viability, T/C [17]: 99.4%; viability, T/C [18]: 91.2%; viability, T/C [19]: 88.6%; viability, T/C [20]: 104%; viability, T/C [23]: 105%; viability, T/C [24]: 101%; viability, T/C [25]: 88%; viability, T/C [26]: 93.8%; viability, T/C [29]: 91.4%; viability, T/C [30]: 102%
